The values that follow are results of earlier work, collected in patent publication US20030232078A1, “Formulation & dosage form for the controlled delivery of therapeutic agents” (priority 2001, published 2003).

The conditions of the data set: conventional formulations; well known.

In the case of `CS(=O)(=O)Nc1ccc(F)c([C@@H](O)CN)c1.Cl` [ABT-232], the “absorption in the lower GI tract” value was “not absorbed in significant amounts”.

`N[C@@H](Cc1ccc(O)c(O)c1)C(=O)O` [L-dopa]: the “absorption in the lower GI tract” value is “not absorbed in significant amounts”.

Consider `C[C@@](Cc1ccc(O)c(O)c1)(NN)C(=O)O` [carbidopa], for which the “absorption in the lower GI tract” value is “not absorbed in significant amounts”.
